The values that follow are results of earlier work, collected in patent publication US20140194400A1, “Nasal Pharmaceutical Formulation” (Meda Pharma GmbH & Co., Kg, priority 2011, published 2014).

As to `C[C@@H]1C[C@H]2[C@@H]3C[C@H](F)C4=CC(=O)C=C[C@]4(C)[C@@]3(F)[C@@H](O)C[C@]2(C)[C@@]1(O)C(=O)SCF` [fluticasone], the oral absorption result is reported as “about 1%”.
